According to PMC6588613, “Lupin (Lupinus spp.) seeds exert anthelmintic activity associated with their alkaloid content” (Scientific Reports, 2019):
Converted amounts (≈) assume the structure as drawn. Like-named read-outs stand apart in the source and are kept apart here. Each block holds one molecule with its values, some of them ahead of it.

Assays:
[1] = molecular target: C. elegans nicotine-sensitive AChR (Cel-N-AChR, acr-16) (Caenorhabditis elegans, UniProt P48180); assay: Xenopus laevis oocyte two-electrode voltage-clamp, Cel-N-AChR; assay type: cell-based
C. elegans nicotine-sensitive AChR (Cel-N-AChR, acr-16), sequence (P48180 20-498): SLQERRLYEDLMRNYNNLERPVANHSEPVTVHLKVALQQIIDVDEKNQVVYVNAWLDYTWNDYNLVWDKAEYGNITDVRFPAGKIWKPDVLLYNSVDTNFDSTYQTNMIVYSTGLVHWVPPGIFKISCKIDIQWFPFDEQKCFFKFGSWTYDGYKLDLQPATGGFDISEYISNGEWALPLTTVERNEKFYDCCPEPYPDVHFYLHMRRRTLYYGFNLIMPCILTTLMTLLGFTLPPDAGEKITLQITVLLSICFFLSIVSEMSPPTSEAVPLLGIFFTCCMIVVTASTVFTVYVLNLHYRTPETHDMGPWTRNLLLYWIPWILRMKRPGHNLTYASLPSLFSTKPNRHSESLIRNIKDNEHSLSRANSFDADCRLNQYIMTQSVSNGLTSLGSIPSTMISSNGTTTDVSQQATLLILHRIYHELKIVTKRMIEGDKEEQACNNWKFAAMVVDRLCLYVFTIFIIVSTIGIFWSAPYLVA
Text: (§1) The lupanine and alkaloid extracts from lupin seeds were perfused on defolliculated X. laevis oocytes (Ecocyte Bioscience, Dortmund, Germany) expressing either the C. elegans nicotine-sensitive nAChR subtype (Cel-N-nAChR, encoded by acr-16[53]), or its levamisole-sensitive counterpart (Cel-L-nAChR, encoded by unc-38, unc-63, unc-29, lev-1 and lev-8[53]). In the lack of H. contortus nicotine-sensitive AChR described, the sole levamisole-sensitive nAChR subtype 1 (Hco-L-nAChR1, encoded by unc-29.1, unc-38, unc-63 and acr-8[29]) from H. contortus was also expressed. Expression of recombinant nAChRs was achieved by microinjection of cRNAs into the oocyte cytoplasm and two-electrode voltage-clamp recordings were carried out as previously described.
Acetylcholine was applied first to check for the presence of functional nAChRs and for current normalization in presence of lupanine or alkaloid extracts.
(§2) Dose-response data were modelled as a log-logistic regression with two parameters, i.e. the curve slope and the associated median excitatory (EC50) or inhibitory (IC50) concentration using the drc package v3.0-1[58]. To account for differences in maximal response values, a third parameter was added for electrophysiology data modelling.

[2] = system: drug-susceptible H. contortus infective larvae; assay: Automated Larval Migration Assay (ALMA), drug-susceptible isolate; assay type: cell-based, Haemonchus contortus; details: for larval migration as percentage of control larval migration (ALMA): drug-susceptible larvae, 250 µg/mL (compound 2: 150 µg/mL), 4 h, ± s.d.
Text: Parasite material was maintained by the INRA animal parasite nematode collection. Two H. contortus isolates that were. susceptible or resistant to every licensed anthelmintic compound in France (benzimidazoles, levamisole, macrocyclic lactones) were used. […] To establish whether lupin effect was conserved across GIN species, a fully susceptible French T. circumcincta isolate[51] was used. […] For every test, infective larvae were exsheathed with 0.5% hypochlorite solution and rinsed thrice with water before subsequent incubation in 5 mg/mL solutions of either crude maceration, alkaloidic fraction or non-alkaloidic fraction, levamisole (10 µM) or water, for 18 h at 20 °C. At the end of the incubation period, 100 L3 were deposited on migration plates with 20 µm mesh at 38 °C for 2 h as described elsewhere. […] Dose-response assays were run with six control replicates and four replicates by concentration tested (0, 5, 7.5 and 10 mg/mL for E063 alkaloids and 0, 2, 4, 6 and 8 mg/mL for ENERGY alkaloids).
(§3) Because of the scarcity of fractionated alkaloidic compounds (2.7 to 12.8 mg), their anthelmintic effect on infective H. contortus larvae was measured using ALMA. This technique relies on larval auto-fluorescence generated through ultraviolet excitation[42],[43]. Every alkaloidic compound was incubated for 4 h at 20 °C with 7,500 H. contortus infective larvae each. Larvae were then passed through a 20 μm sieve and left for a 60 s stabilization time before migration into the spectrofluorimeter cuvette. Cumulative fluorescence resulting from larval migration into the cuvette and correlating the total number of larvae[43] was recorded during 5 min. Each set of experiment was performed in triplicate at a concentration of 250 µg/mL but for compound 2 (150 µg/mL). Levamisole 10 µM was used as a positive control.

[3] = system: multidrug-resistant H. contortus infective larvae; assay: Automated Larval Migration Assay (ALMA), multidrug-resistant isolate; assay type: cell-based, Haemonchus contortus; details: 250 µg/mL, ± s.d.
Procedure: as §3

[4] = system: mammalian nAChRs; details: cited from earlier work
[5] = system: drug-susceptible Haemonchus contortus infective larvae; assay: Larval migration inhibition assay (LMIA), fully susceptible isolate; assay type: cell-based
[6] = system: multidrug-resistant Haemonchus contortus infective larvae; assay: Larval migration inhibition assay (LMIA), multidrug resistant isolate; assay type: cell-based; details: levamisole 10 µM
[7] = system: susceptible Teladorsagia circumcincta infective larvae; assay: Larval migration inhibition assay (LMIA), T. circumcincta; assay type: cell-based; details: lyophilized extracts 5 mg/mL, levamisole 10 µM, read-out: Average inhibitory effect (mean)
[8] = system: multidrug resistant H. contortus isolate; assay: In vitro drug susceptibility of the multidrug resistant isolate (assay not given); assay type: cell-based, Haemonchus contortus
[9] = system: multidrug resistant H. contortus isolate; assay type: in vivo, Haemonchus contortus; details: for in vivo Faecal Egg Reduction Test value: 14 days after treatment; for eggs/g 14 days after treatment: before treatment 11400 (levamisole), 1450 (ivermectin)
[10] = system: fully susceptible H. contortus isolate
[11] = system: fully susceptible French T. circumcincta isolate; assay: microbe, parasite or virus in culture; details: Teladorsagia circumcincta, read-out: IC50 (ALMA)
[12] = system: C. elegans levamisole-sensitive AChR (Cel-L-AChR); assay: Xenopus laevis oocyte two-electrode voltage-clamp, Cel-L-AChR; assay type: cell-based, Caenorhabditis elegans
C. elegans levamisole-sensitive AChR (Cel-L-AChR), sequence (Q27218 32-507): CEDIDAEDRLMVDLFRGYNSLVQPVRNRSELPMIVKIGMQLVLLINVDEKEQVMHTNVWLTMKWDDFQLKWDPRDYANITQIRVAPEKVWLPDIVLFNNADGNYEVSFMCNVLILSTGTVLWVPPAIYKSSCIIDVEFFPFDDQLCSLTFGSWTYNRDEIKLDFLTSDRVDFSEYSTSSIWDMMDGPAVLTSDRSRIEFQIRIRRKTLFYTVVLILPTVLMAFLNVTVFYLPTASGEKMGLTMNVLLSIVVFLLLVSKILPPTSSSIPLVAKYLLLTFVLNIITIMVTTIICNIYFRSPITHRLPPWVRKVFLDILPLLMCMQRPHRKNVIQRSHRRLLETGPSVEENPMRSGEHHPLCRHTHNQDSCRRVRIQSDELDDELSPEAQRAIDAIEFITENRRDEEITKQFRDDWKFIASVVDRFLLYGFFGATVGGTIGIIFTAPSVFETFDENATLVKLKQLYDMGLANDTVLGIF
C. elegans levamisole-sensitive AChR (Cel-L-AChR), sequence (P48181 27-493, further chain): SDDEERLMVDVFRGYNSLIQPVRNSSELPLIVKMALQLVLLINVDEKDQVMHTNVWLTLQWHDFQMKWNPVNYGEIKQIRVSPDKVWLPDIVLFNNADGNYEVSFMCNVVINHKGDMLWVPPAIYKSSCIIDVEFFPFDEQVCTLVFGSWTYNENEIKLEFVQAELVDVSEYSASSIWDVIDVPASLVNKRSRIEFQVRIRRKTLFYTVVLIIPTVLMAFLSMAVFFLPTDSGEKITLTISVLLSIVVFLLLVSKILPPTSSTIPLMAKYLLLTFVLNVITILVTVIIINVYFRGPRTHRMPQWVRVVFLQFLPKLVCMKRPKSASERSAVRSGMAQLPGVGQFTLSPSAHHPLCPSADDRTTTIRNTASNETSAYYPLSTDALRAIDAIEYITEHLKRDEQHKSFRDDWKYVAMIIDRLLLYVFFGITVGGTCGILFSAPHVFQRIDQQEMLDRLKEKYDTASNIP
C. elegans levamisole-sensitive AChR (Cel-L-AChR), sequence (Q23022 17-511, further chain): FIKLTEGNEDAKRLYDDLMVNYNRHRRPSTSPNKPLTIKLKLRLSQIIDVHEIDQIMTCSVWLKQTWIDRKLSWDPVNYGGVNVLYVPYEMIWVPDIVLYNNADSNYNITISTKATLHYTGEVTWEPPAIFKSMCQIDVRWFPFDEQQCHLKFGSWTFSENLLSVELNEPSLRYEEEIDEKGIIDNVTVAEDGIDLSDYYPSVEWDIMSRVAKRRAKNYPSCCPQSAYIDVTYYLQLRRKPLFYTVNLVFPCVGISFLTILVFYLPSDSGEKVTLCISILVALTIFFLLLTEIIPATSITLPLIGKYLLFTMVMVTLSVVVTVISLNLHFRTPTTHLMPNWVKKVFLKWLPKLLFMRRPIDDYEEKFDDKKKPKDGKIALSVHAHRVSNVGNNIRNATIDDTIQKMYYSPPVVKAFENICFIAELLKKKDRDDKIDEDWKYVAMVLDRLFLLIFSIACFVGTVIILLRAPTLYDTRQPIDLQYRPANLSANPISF
C. elegans levamisole-sensitive AChR (Cel-L-AChR), sequence (Q9N587 24-502, further chain): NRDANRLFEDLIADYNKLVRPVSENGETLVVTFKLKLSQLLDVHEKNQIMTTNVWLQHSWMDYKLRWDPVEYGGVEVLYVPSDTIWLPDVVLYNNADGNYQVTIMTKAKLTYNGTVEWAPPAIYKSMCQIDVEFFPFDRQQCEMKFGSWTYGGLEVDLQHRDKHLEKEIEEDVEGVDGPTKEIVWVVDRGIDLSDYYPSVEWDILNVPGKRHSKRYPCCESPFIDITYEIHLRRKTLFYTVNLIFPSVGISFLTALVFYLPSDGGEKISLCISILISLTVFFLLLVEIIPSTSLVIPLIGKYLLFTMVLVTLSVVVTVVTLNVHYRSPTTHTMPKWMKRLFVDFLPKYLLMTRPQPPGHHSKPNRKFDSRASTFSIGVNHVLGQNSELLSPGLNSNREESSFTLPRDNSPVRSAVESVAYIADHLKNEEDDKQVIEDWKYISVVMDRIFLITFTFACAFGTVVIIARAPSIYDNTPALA
C. elegans levamisole-sensitive AChR (Cel-L-AChR), sequence (Q93329 entry or part of it, further chain): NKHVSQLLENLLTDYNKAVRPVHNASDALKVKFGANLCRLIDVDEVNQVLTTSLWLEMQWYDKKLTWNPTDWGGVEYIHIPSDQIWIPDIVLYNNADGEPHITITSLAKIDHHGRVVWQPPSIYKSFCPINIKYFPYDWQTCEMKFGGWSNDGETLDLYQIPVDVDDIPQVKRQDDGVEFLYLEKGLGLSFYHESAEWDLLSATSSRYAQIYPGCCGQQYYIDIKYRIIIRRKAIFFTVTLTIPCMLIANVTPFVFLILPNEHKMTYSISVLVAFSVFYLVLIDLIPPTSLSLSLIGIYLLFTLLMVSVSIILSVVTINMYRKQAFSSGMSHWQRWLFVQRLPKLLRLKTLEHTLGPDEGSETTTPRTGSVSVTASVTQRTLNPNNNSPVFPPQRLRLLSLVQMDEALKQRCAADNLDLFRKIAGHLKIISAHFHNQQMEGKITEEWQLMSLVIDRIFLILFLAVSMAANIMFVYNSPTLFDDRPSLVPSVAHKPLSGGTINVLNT
Text: as §1, §2

[13] = molecular target: H. contortus levamisole-sensitive AChR (Hco-L-AChR-1) (Haemonchus contortus, UniProt A9XX24+D6MYE9+D6MYF3+D6MYF4); assay: Xenopus laevis oocyte two-electrode voltage-clamp, Hco-L-AChR-1; assay type: cell-based
H. contortus levamisole-sensitive AChR (Hco-L-AChR-1), sequence (D6MYE9 entry or part of it): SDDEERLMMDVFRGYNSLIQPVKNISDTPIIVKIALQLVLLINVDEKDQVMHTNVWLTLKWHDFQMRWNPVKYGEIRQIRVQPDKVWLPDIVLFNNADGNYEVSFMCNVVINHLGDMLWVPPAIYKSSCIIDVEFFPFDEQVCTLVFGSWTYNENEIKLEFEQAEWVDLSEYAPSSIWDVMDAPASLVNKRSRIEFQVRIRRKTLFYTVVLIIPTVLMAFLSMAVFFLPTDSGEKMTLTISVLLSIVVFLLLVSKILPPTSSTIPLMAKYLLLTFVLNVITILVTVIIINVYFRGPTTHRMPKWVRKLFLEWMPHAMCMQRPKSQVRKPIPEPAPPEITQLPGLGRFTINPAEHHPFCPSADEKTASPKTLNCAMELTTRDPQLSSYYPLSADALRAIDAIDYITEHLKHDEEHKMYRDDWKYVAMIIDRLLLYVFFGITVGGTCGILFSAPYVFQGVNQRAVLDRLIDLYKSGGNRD
H. contortus levamisole-sensitive AChR (Hco-L-AChR-1), sequence (D6MYF4 entry or part of it): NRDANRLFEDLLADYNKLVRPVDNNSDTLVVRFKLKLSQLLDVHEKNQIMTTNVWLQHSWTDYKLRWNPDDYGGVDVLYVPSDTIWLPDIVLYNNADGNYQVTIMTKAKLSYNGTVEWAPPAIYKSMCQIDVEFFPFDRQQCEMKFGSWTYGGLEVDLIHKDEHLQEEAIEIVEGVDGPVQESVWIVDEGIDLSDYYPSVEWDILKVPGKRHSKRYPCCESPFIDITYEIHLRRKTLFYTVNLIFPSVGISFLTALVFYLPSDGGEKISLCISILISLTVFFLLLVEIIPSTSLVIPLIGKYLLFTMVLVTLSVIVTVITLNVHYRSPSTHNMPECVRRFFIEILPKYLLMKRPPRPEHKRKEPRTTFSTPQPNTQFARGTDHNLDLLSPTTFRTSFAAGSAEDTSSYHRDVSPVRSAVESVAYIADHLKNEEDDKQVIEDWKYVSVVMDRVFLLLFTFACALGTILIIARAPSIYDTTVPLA
H. contortus levamisole-sensitive AChR (Hco-L-AChR-1), sequence (A9XX24 entry or part of it): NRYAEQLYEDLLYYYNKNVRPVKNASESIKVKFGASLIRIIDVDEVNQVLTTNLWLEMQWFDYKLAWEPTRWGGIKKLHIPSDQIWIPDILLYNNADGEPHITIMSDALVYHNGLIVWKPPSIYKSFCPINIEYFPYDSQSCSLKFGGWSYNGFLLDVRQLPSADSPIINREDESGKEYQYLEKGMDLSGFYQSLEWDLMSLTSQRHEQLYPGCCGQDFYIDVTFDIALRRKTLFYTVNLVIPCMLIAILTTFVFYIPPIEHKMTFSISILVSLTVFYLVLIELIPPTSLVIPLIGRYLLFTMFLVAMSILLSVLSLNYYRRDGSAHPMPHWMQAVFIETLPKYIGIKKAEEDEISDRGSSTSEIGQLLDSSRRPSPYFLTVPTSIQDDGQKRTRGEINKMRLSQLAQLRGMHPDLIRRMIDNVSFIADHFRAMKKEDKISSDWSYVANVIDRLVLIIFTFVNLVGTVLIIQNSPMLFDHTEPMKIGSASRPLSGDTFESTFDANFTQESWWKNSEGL
H. contortus levamisole-sensitive AChR (Hco-L-AChR-1), sequence (D6MYF3 entry or part of it): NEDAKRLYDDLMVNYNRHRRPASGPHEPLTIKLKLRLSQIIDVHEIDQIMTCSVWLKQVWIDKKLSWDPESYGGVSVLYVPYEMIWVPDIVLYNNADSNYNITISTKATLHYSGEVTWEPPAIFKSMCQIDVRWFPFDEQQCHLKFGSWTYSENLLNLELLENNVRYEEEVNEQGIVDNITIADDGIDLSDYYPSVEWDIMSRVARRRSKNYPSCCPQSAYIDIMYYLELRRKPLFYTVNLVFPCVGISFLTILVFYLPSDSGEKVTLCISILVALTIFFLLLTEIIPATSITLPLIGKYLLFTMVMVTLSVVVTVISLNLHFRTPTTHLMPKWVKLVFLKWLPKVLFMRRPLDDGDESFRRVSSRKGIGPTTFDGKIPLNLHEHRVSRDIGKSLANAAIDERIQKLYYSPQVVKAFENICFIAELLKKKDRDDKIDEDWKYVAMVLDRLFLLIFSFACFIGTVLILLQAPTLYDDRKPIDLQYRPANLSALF
Text: as §1, §2

[14] = system: susceptible control H. contortus; assay: In vitro drug susceptibility of the susceptible control (assay not given); assay type: cell-based; details: Haemonchus contortus

Molecule: CC(=O)OCC[N+](C)(C)C [Acetylcholine, acetylcholine]
EC50 ([1]; EC50, acetylcholine alone): 21.7 ± 0.9 µM | EC50 ([1]; EC50 of acetylcholine with lupanine (300 µM), in the presence of 300 µM lupanine): 80.6 ± 27.5 µM

Molecule: CC=C(C)C(=O)OC1CCN2C[C@@H]3C[C@@H](CN4C(=O)CCC[C@H]34)[C@@H]2C1 (stereo partly shown) [Compound 1, 13-angeloyloxy or 13-tigloyloxy-lupanine]
larval migration as percentage of control larval migration (ALMA) [2]: 53.6% | larval migration as percentage of control (ALMA) [3]: 62.4%

Molecule: O[C@@]12C[C@@H](CN3CCCC[C@H]31)[C@H]1CCCCN1C2 [Compound 4, 7-hydroxysparteine]
larval migration as percentage of control larval migration (ALMA) [2]: 76%

Molecule: CC=C(C)C(=O)O[C@H]1CCN2C(=O)[C@@H]3C[C@@H](CN4C(=O)CCC[C@H]34)[C@@H]2C1 [Compound 5]
larval migration as percentage of control larval migration (ALMA) [2]: did not significantly inhibit

Molecule: O=C(OC1CCN2C[C@@H]3C[C@@H](CN4C(=O)CCC[C@H]34)[C@@H]2C1)c1ccccc1 (stereo partly shown) [Compound 6]
larval migration as percentage of control larval migration (ALMA) [2]: did not significantly inhibit

Molecule: O=c1cccc2n1C[C@@H]1CNC[C@H]2C1 [cytisine]
IC50 [4]: 0.14 µM

EC50 ([8]; Haemonchus contortus): 15.6 µM | IC50 [11]: 1.79 µM
Molecule: c1ccc([C@H]2CN3CCSC3=N2)cc1 [levamisole]
inhibition at 10 µM ([5]; Haemonchus contortus, H. contortus drug susceptible, lyophilized extracts 5 mg/mL, levamisole 10 µM, read-out: Average inhibitory effect): 99.5% | IC50 ([5]; Haemonchus contortus, concentration response assay, susceptible H. contortus isolate): 1.61 µM | inhibition at 10 µM ([5]; Haemonchus contortus, susceptible H. contortus L3, levamisole 10 µM, extract 5 mg/mL, estimate ± s.e.m., read-out: mean inhibition of larval migration): 99.3% | Percentage of migrating larvae ([5]; fully susceptible isolate, fractions 2.5 mg/mL, fractions 1 and 8 0.625 mg/mL, levamisole 10 µM, negative control 100): 12.1% | inhibition at 10 µM ([6]; Haemonchus contortus, H. contortus multidrug resistant, lyophilized extracts 5 mg/mL, read-out: Average inhibitory effect): 30.5% | Percentage of migrating larvae ([6]; multidrug-resistant isolate, fractions 2.5 mg/mL, fractions 1 and 8 0.625 mg/mL, negative control 100): 39.7% | inhibition at 10 µM [7]: 73.7% | EC50 ([2]; Haemonchus contortus, fully susceptible isolate, read-out: in vitro EC50 (Automated Larval Migration inhibition Assay)): 1.1 µM | in vivo Faecal Egg Reduction Test value [9]: 31.6% | eggs/g 14 days after treatment [9]: 7800 eggs/g | Faecal Egg Count reduction in vivo [10]: 100%

Molecule: O=C1CCC[C@@H]2[C@H]3C[C@@H](CN12)[C@@H]1CCCCN1C3 [lupanine]
inhibition of the control migration ([5]; concentration response assay, 0 to 3 mM, susceptible isolate, linear, highly variable): less than 25% | drop-off in the maximum amplitude of ACh-elicited currents ([1]; 300 µM lupanine): 81% | IC50 ([1]; n = 5, read-out: IC50 on ACh-elicited currents): 116 ± 9.7 µM | decrease in maximal ACh-elicited current ([12]; 300 µM lupanine, levamisole-sensitive receptors): 38% | IC50 ([12]; read-out: IC50 on ACh-elicited currents, Cel-L-AChR, n = 5): 549 ± 64.1 µM | IC50 ([13]; Hco-L-AChR-1, n = 5, read-out: IC50 on ACh-elicited currents): 540 ± 90.2 µM | inhibition at 300 µM ([13]; read-out: decrease in maximal ACh-elicited current): 38% | IC50 [4]: 5 µM

EC50 ([8]; Haemonchus contortus): 0.587 mg/L | EC50 [14]: 0.022 mg/L (≈ 0.0612 µM)
Molecule: CSc1nc2cc(Cl)c(Oc3cccc(Cl)c3Cl)cc2[nH]1 [triclabendazole]

Molecule: ivermectin
EC50 [8]: 0.055 µM | in vivo Faecal Egg Reduction Test value [9]: 67.8% | eggs/g 14 days after treatment [9]: 450 eggs/g
